“Also recorded” adds a separate entry of the source.
Legend:
[1] = system: occludin, claudin-1 and E-cadherin; assay: Immunoblot of junctional proteins in detergent-insoluble fraction of Caco-2 cells; format: cell-based, human
Description: (§1) To extract the proteins from Caco-2 cells, cells were seeded in 6-well plates for 14-21 days. Following treatment, the cells were washed, scraped from the bottom of 6-well plates, suspended in PBS, and pelleted by centrifugation. Total protein from Caco-2 cells was extracted using the M-PER Extraction Kit (Thermo Fisher Scientific). Detergent-insoluble (membrane) and detergent-soluble (cytosolic) proteins were isolated using a Mem-Per Eukaryotic Protein Extraction Kit (Thermo Fisher Scientific) while the cytosolic and nuclear proteins were extracted using NE-PER Extraction Reagent (Thermo Fisher Scientific). To extract proteins from ileal epithelial cells, the epithelial cell fraction from ileal tissues were isolated as described above and the detergent-insoluble and the detergent-soluble proteins were isolated using a Mem-Per Eukaryotic Protein Extraction Kit.
(§2) To extract total protein from intact bacterial cells, sample solvent buffer and sonication (3 cycles of 20 min each) were used. […] The protein concentrations were determined by BCA assay (Thermo Fisher Scientific), and separated on SDS-PAGE gels (10-12.5% polyacrylamide) and electro-transferred to polyvinylidene difluoride (PVDF) membrane (Millipore). […] To compare the reaction intensities, the average band densities were determined using Quantity One software (Bio-Rad). […]

MLCK = assay: Immunoblot of MLCK and P-MLC in whole-cell Caco-2 lysates; format: cell-based, human; settings: pre-treatment prior to infection with WT strain, relative to uninfected cells
Description: as §1, §2

NF-κB(p65) = assay: Immunoblot of NF-κB activation in Caco-2 cytoplasmic and nuclear extracts; format: cell-based, human; settings: BAY 10 μM or PDTC 100 μM, Caco-2 cells
Description: as §1
To extract total protein from intact bacterial cells, sample solvent buffer and sonication (3 cycles of […]) were used. To isolate the cell wall-associated proteins bacterial pellets were resuspended in 0.5 ml protein extraction buffer (0.5% SDS, 10 mM Tris at pH 6.9), and incubated at 37° C. for 30 min with agitation. The samples were centrifuged (14,000×g, 10 min, 4° C.), and the supernatants (containing cell wall-associated proteins) were retained. Halt proteases and phosphatase inhibitors (Thermo Fisher Scientific) were used during all of the protein extraction procedures. The protein concentrations were determined by BCA assay (Thermo Fisher Scientific), and separated on SDS-PAGE gels (10-12.5% polyacrylamide) and electro-transferred to polyvinylidene difluoride (PVDF) membrane (Millipore). The membranes were then blocked in 5% nonfat dry milk (NFDM) in 0.1 M Tris-buffered saline, pH 7.5 (TBS) containing 0.1% Tween 20 (TBST) for at least 1 h. All of the primary antibodies were diluted in 5% bovine serum albumin (BSA) or 5% NFDM in TBST and incubated overnight. Secondary antibodies (1:2000 in 5% NFDM in TBST) incubated for 1 h at 37° C., and a chemiluminescence method was performed using LumiGLO reagent (Cell Signaling). The membranes were exposed to X-ray films or visualized using the Chemi-Doc XRS system (Bio-Rad). To immunoprobe the same membrane with another antibody, the originally bound antibodies from the membranes were removed by incubating the membranes in Restore Western Blot Stripping Buffer (Thermo Fisher Scientific) according to the manufacturer's protocol. To compare the reaction intensities, the average band densities were determined using Quantity One software (Bio-Rad). Densitometry reports represent the mean±SEM after normalization to the loading control and is presented as % change of protein with the average for untreated cells (control) set at 100%. Immunoblots and densitometric reports are representative of 2-3 independent experiments.

Caco-2 cell monolayers = assay: Transepithelial electrical resistance (TEER) of Caco-2 monolayers on Transwell inserts; format: cell-based, human; settings: for effect on Caco-2 TEER in LAP-treated cells: BAY 10 μM or PDTC 100 μM
L. monocytogenes [2] = assay: Intracellular invasion of L. monocytogenes in Caco-2 cells (gentamicin protection); format: cell-based, Listeria monocytogenes
Description: For bacterial invasion analysis, monolayers were washed with PBS after 1 h of infection (MOI, ˜50) and incubated with DMEM-FBS (10%) containing gentamicin (50 μg/mL) for 1 h. Caco-2 cells were lysed with 0.1% Triton X, and the internalized bacteria were enumerated by plating.

L. monocytogenes [3] = assay: Translocation of L. monocytogenes through polarized Caco-2 monolayers on Transwell filter-inserts; format: cell-based, Listeria monocytogenes; settings: for effect on translocation of the lap strain: 30 min pretreatment, BAY 10 μM or PDTC 100 μM
Description: Caco-2 cells were grown as monolayers on Transwell inserts with 3.0 μm pores (Corning-Costar) for up to 14-21 days. TEER was measured to monitor the monolayer integrity (Millicells Voltmeter, Millipore). A TEER value of at least 200 Ω/cm^2 (±10) was used as the basal value to monitor the monolayer integrity. Bacterial cells were washed three times in PBS and resuspended in DMEM-FBS (10%) at a MOI of ˜50 and were added to the apical side of the Transwell system, and after 2 h incubation period at 37° C. in 5% CO2, the liquid was collected from the basal well, and then translocated bacteria were enumerated by plating (Burkholder and Bhunia, 2010). For analysis of FD4 flux, non-metabolizable 4 kDa FITC-labeled dextran (FD4; 5 mg/ml, Sigma-Aldrich) was added with bacteria (MOI, ˜50) resuspended in DMEM-FBS (10%) and added to the apical side. After 2 h incubation at 37° C. in 5% CO2, the liquid was collected from the basal well and fluorescence was measured (Em: 485 nm; Ex: 520 nm; Spectramax, Molecular Devices). For pharmacological inhibition treatments, PDTC (100 μM for 30 min pre-treatment; R&D Systems), Bay-11-7085 (10 μM for 30 min pre-treatment; Sigma-Aldrich), ML-9 (20 μM for 30 min pre-treatment; Sigma-Aldrich), PIK (150 μM, 30 min-pre-treatment and kept during 2-h infection) (Zolotarevsky et al., 2002), and Cytochalasin D (1 μg/mL for 1 h; Sigma-Aldrich) were used separately.
For re-association of externally added LAP to the lap^− mutant, bacteria were harvested from 1 ml of overnight grown culture, and the pellet was washed three times in PBS before the addition of 1 or 2 μg/mL of purified LAP. The mixture was incubated for 30 min at 30° C. with continuous shaking and then pelleted, washed five times in the PBS, resuspended in DMEM, and used in the aforementioned translocation assay.

| SMILES | effect of the inhibitor alone on expression of junctional proteins [1] | effect on L. monocytogenes-induced redistribution of occludin, claudin-1 and E-cadherin ([1]; PIK 150 μM or BAY 10 μM, 30 min, prior to WT infection (MOI 50, 45 min)) | levels of MLCK and P-MLC in whole cell lysate (MLCK) | effect on LAP-mediated NF-κB activation (NF-κB(p65)) | effect on Caco-2 TEER in LAP-treated cells (Caco-2 cell monolayers) | effect on intracellular invasion of the WT strain (L. monocytogenes [2]) | effect on translocation of the lap strain (L. monocytogenes [3]) | effect on translocation of WT and ΔinlA strains (L. monocytogenes [3]; PIK 150 μM or ML-9 20 μM, MOI 50) | effect of the inhibitor alone on Caco-2 TEER (Caco-2 cell monolayers) | increase of translocation of WT (L. monocytogenes [3]; cytochalasin D 1 μg/mL for 1 h) |
| --- | --- | --- | --- | --- | --- | --- | --- | --- | --- | --- |
| CC(C)(C)c1ccc(S(=O)(=O)/C=C/C#N)cc1 [BAY, BAY 11-7085] | no effect | prevented; also recorded: Restoration | unchanged levels | inhibited | restored | did not affect | no apparent effect |  |  |  |
| O=S(=O)(c1cccc2c(Cl)cccc12)N1CCCNCC1 [ML-9] |  |  |  |  |  | none of these inhibitors, affected the intracellular invasion capabilities |  | significantly reduced |  |  |
| S=C(S)N1CCCC1 [PDTC, pyrrolidine dithiocarbamate] |  |  |  | inhibited | restored | did not affect | no apparent effect |  | did not affect |  |
| C=C1[C@@H](C)[C@H]2[C@H](Cc3ccccc3)NC(=O)[C@]23[C@H](OC(C)=O)/C=C/[C@@](C)(O)C(=O)[C@@H](C)C/C=C/[C@H]3[C@@H]1O [Cytochalasin D] |  |  |  |  |  | low |  |  | very low | approximately 2.5 fold |

From patent US10632208B2, “Peptide-mediated drug delivery across epithelial barrier” (Purdue Research Foundation, priority 2017, dated 2020)
